Reference: patent US20050163849A1 (priority 2003, published 2005)

Test: Intracolonic ligated model, lower G.I. absorption and bioavailability of iron-transport moiety complexes
Conditions: rat, intracolonic bolus into ligated colon, 10 mg iron/rat
Experimental: Absorption of the complexes is evaluated from blood samples taken from the animal as a function of time after intubation. A rise in the hematocrit level in the blood is indicative of absorption.
A segment of proximal colon is isolated and the colon is flushed of fecal materials. […] The colonic contents are flushed out and the colon is returned to the abdomen of the animal.
At the end of the 4 hour test period, the rats are euthanized with an overdose of pentobarbital. Colonic segments from each rat are excised and opened longitudinally along the anti-mesenteric border. Each segment is observed macroscopically for irritation and any abnormality noted. The excised colons are placed on graph paper and measured to approximate colonic surface area.

Substance: ferrous laurate [ferrous-laurate complex]
- Increased absorption relative to ferrous sulfate (change in hematocrit level): at least two-fold
